According to US11021444B2, “Antiviral compounds” (priority 2013, dated 2021):
Where two headings read alike, the source gives them in different places.

Experiments:
[1] = Cytotoxicity Determination (CCK-8, without addition of virus); assay type: cell-based; settings: human, 50% cytotoxicity concentration (CC50)
Description: (§1) CPE reduction assays are performed as described by Sidwell and Huffman et al., Appl. Microbiol. (1971) 22(5):797-801 with slight modifications. HEp-2 cells (ATCC #, CCL-23) are seeded at a density of 1,500 cells/30 μl/well into the 384-well cell plate(s) (Corning #3701) one day prior to the assay. Compounds are added into 384-well cell plates by Labcyte POD 810 Plate Assembler system. Each of the test compounds is provided to duplicate wells of a 384-well cell plate at final concentrations starting from 100 μM or 1 μM using 1/3 stepwise dilutions for 9 points. Quick-thaw Respiratory Syncytial Virus (RSV) long strain (ATCC #VR-26) stock in a 37° C. water bath. Place on ice until ready to use. Viruses are diluted to the concentration of 100 TCID50/30 μL with medium and 30 μl diluted RSV are added into related wells of 384-well cell plates. For each plate, sixteen wells are set aside as uninfected, untreated cell controls (CC), and nine wells per test plate receive virus only as a control for virus replication (VC). The final DMSO concentration of all wells is 1%. Place the plates at 37° C., 5% CO2 for 5 days.
In order to determine the compound cytotoxicity, in parallel, each of the compounds is applied to duplicate wells in a 384-well cell plate at serial final concentrations starting from 100 μM using 1/2 stepwise dilutions for 7 points without addition of virus. Incubate the cells at 37° C., 5% CO2 for 5 days. Add 6 μL CCK-8 into each well and incubate in a CO2 incubator at 37° C. for 3-4 hours.

recombinant RSV complex = recombinant RSV complex (Human respiratory syncytial virus A, UniProt P28887); test: RSV Polymerase Inhibition Assay; assay type: biochemical
Description: Standard RSV polymerase assays were conducted in the presence of 10 nM recombinant RSV complex in a reaction buffer containing Tris-HCl pH7.5, 6 mM MgCl2, and other additives and substrates including RNA oligonucleotides and radionucleotides. Standard reactions were incubated in 96-well plate format for 2 h at 30° C., in the presence of increasing concentration of inhibitor. The reaction was stopped with 90 μL of 0.1M EDTA, and the reaction product was transferred to a “reading” 96-well plate. After washing of the plate, radiolabeled RNA products were detected according to standard procedures with a Trilux Topcount scintillation counter.

[2] = test system: Respiratory Syncytial Virus (RSV) long strain; test: microbe, parasite or virus in culture; assay type: cell-based; settings: human respiratory syncytial virus, Tables A and B list compounds by EC50 band
Description: as §1
After 5 days incubation, observe the CPE of cells in all wells. […] Six μl of cell counting kit-8 reagent (CCK-8, Dojindo Molecular Technologies Inc., CK04-20) are added to each well, which allows colorimetric assays to determine the number of viable cells through the dehydrogenase activity detection. After 3-4 hour incubation, the absorbance of each well is measured with a spectrophotometric plate reader at 450 nm wavelength, using a 630 nm filter as background according to manufacturer's instruction.

[3] = HEp-2, 120 h, read-out: 50% effective concentration (EC50), HEp-2 cells infected with RSV long strain, 5 days, CCK-8 readout

Sequence of recombinant RSV complex (P28887 whole entry): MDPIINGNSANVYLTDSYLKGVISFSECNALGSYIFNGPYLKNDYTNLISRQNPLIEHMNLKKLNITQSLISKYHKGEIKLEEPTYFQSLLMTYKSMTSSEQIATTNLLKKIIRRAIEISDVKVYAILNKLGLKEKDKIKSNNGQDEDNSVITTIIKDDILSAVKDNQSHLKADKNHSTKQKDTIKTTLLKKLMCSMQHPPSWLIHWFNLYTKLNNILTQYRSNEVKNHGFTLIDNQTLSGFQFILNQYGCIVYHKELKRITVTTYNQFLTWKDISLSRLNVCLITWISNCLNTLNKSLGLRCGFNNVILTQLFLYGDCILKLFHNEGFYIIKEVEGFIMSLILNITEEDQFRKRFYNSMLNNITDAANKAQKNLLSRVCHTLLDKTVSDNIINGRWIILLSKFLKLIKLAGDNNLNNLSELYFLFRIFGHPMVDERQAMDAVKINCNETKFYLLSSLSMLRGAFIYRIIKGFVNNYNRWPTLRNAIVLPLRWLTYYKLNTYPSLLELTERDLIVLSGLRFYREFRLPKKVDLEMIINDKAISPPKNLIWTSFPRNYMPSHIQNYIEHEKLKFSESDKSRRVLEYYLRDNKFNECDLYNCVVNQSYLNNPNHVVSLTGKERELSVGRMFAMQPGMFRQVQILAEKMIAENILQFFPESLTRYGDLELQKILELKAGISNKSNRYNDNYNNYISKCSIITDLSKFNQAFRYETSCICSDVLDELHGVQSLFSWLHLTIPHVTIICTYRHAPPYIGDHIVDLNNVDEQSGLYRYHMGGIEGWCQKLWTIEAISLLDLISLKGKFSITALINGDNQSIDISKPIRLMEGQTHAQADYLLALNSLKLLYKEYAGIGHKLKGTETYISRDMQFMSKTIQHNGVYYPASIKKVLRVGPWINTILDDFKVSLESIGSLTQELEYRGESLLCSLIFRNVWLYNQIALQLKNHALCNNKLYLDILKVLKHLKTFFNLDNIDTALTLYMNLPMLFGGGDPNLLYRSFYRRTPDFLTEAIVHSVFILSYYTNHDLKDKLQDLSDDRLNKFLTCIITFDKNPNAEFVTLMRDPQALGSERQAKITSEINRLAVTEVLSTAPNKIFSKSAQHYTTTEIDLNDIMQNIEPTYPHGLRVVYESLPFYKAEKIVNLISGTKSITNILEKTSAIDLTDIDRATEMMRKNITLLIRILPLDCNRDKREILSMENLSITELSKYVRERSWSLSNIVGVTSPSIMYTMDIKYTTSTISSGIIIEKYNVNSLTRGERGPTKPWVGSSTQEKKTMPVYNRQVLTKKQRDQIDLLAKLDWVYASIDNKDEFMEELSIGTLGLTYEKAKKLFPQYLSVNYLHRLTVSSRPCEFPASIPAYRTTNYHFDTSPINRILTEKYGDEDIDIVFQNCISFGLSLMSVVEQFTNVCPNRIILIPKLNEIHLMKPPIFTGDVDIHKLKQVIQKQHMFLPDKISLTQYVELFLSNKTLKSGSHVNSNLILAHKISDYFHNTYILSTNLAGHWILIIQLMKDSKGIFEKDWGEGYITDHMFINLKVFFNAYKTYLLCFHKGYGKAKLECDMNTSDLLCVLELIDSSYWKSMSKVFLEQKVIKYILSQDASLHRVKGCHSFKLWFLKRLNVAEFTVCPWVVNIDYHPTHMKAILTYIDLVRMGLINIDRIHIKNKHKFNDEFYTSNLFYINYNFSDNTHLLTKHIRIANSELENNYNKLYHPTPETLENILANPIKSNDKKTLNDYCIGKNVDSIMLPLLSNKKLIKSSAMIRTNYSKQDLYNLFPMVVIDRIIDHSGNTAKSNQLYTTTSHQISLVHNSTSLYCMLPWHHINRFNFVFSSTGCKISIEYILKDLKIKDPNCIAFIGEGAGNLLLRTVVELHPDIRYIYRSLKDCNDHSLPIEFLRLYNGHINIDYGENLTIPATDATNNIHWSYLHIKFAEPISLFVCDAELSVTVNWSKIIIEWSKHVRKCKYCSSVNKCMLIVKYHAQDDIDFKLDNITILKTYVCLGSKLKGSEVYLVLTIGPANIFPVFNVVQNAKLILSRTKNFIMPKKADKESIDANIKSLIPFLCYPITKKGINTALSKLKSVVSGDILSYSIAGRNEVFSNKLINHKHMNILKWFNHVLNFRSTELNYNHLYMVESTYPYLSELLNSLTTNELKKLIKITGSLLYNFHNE
Sequence of recombinant RSV complex (P03421 whole entry, further chain): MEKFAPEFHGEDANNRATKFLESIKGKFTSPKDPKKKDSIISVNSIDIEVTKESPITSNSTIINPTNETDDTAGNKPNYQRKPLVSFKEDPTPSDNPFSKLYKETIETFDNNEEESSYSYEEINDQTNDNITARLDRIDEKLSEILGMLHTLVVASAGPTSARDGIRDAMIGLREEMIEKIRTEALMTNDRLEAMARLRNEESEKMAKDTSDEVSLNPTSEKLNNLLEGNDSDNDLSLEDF

Row | Structure (SMILES) | IC50 (recombinant RSV complex) [µM] | further results
1 | COc1cc(C(=O)NCC(O)(c2cc(C(C)(C)N)cc(-c3ccc(C#N)cc3)n2)C(F)(F)F)ccc1OCC(N)=O (centres unmarked) [Compound 625] | < 1 | CC50 at 5 days [1]: > 100 µM
2 | COc1ccc(C(O)(CNC(=O)c2ccc3ncccc3c2OC)C(F)(F)F)nc1-c1ccc(F)c(Cl)c1 (centres unmarked) [Compound 269] | – | CC50 at 5 days [1]: 10 to 100 µM
3 | COc1cc(C(=O)NCC(O)(c2ccc(OC)c(-c3cnc(Cl)s3)n2)C(F)(F)F)ccc1OCCO (centres unmarked) [Compound 468] | – | CC50 at 5 days [1]: 10 to 100 µM
4 | COc1cc(-c2csc3c(F)cccc23)nc(C(O)CNC(=O)c2cc(OC)c(OC)cc2O)c1 (centres unmarked) [Compound 110] | – | CC50 at 5 days [1]: 10 to 100 µM
5 | COc1cc(C(=O)NCC(O)(c2ccc(OC)c(-c3ccc(F)c(Cl)c3)n2)C2CC2)ccc1OCc1ncnn1C (centres unmarked) [Compound 352] | < 10 | –
6 | COc1cc(C(=O)NCC(O)(c2cc(C(C)(C)N)cc(-c3ccc(F)c(Cl)c3)n2)C(F)(F)F)ccc1OCc1nnn[nH]1 (centres unmarked) [Compound 616] | < 10 | CC50 at 5 days [1]: > 100 µM
7 | COc1cc(C(=O)NCC(O)(c2cc(C(C)(C)NC(=O)OCc3ccccc3)cc(-c3ccc(F)c(Cl)c3)n2)C(F)(F)F)ccc1OC1CC1 (centres unmarked) [Compound 399] | < 1 | –
8 | COc1ccc(-c2cc(C(C)(C)N)cc(C(O)(CNC(=O)c3ccc(OCCO)c(OC)c3)C(F)(F)F)n2)cn1 (centres unmarked) [Compound 660] | < 10 | –
9 | COc1cc(C(=O)NCC(C)(O)c2nc(-c3ccc(F)c(Cl)c3)c(C)n2C)ccc1OCCF (centres unmarked) [Compound 144] | < 100 | –
10 | COc1cc(C(=O)NCC(O)(c2cc3c(c(-c4ccc(C(N)=O)cc4)n2)OCC3(C)N)C(F)(F)F)ccc1OCCO (centres unmarked) [Compound 674] | – | CC50 at 5 days [1]: > 100 µM
11 | CC1(N)COc2c1cc(C(O)(CNC(=O)c1ccc(OC3CC3)c(CO)c1)C(F)(F)F)nc2-c1ccc(F)cc1 (centres unmarked) [Compound 481] | < 1 | –
12 | COc1cc(C(=O)NCC(O)(CN2CCCCC2)c2ccc(OC)c(-c3ccc(F)c(Cl)c3)n2)ccc1OCCO (centres unmarked) [Compound 188] | < 10 | –
13 | CCOc1ccc(C(=O)NCC(O)c2ccc(OC)c(-c3ccc(F)c(Cl)c3)n2)cc1OC (centres unmarked) [Compound 154] | < 10 | –
14 | COc1cc(C(=O)NCC(O)(c2ccc(OC)c(C3COc4c(F)cccc43)n2)C2CC2)ccc1OCCO (centres unmarked) [Compound 427] | < 100 | CC50 at 5 days [1]: > 100 µM
15 | COc1cc(C(=O)NCC(O)(c2cc3c(c(-c4ccnc(C)c4)n2)OCC3(C)N)C(F)(F)F)ccc1OCCO (centres unmarked) [Compound 670] | – | CC50 at 5 days [1]: > 100 µM
16 | COc1cc(C(=O)NCC(O)(CN(CCN)CC(=O)O)c2ccc(OC)c(-c3ccc(F)c(Cl)c3)n2)ccc1OCCO (centres unmarked) [Compound 183] | < 1 | CC50 at 5 days [1]: > 100 µM
17 | COc1cc(C(=O)NCC(O)(c2cc(C(C)(N)C(F)F)cc(-c3ccc(F)cc3)n2)C(F)(F)F)ccc1OCCO (centres unmarked) [Compound 669] | < 1 | –
18 | CCOC(=O)COc1ccc(C(=O)NCC(O)(c2cc(C(C)(C)N)cc(-c3ccc(F)c(Cl)c3)n2)C(F)(F)F)cc1OC (centres unmarked) [Compound 617] | < 1 | CC50 at 5 days [1]: 10 to 100 µM
19 | CC(C)(N)c1cc(-c2ccc(F)c(Cl)c2)nc(C(O)(CNC(=O)c2coc(Cl)n2)C(F)(F)F)c1 (centres unmarked) [Compound 478] | < 10 | EC50 [2, 3]: 1 to 50 µM
20 | COc1cc(C(=O)NCC(O)(c2cc3c(c(-c4ccc(F)cc4)n2)OCC32CCCN2)C(F)(F)F)ccc1OCCO (centres unmarked) [Compound 652] | < 1 | –
21 | COc1cc(C(=O)NCC(O)(c2cc3c(c(-c4ccc(Cl)nc4)n2)OCC3(C)N)C(F)(F)F)ccc1OC1CC1 (centres unmarked) [Compound 668] | < 1 | –
22 | COc1cc(C(=O)NCC(C)(O)c2ccc(OC)c(-c3ccc(F)c(Cl)c3)n2)ccc1OCC#N (centres unmarked) [Compound 367] | < 1 | –
23 | COc1cc(C(=O)NCC(O)(c2cc(CNC(C)=O)cc(-c3ccc(F)cc3)n2)C(F)(F)F)ccc1OC1CC1 (centres unmarked) [Compound 329] | < 1 | –

Row | Structure (SMILES) | IC50 (recombinant RSV complex) [µM] | further results
24 | COc1cc(C(=O)NCC(O)(c2cc(CCN)cc(-c3ccc(F)c(Cl)c3)n2)C(F)(F)F)ccc1OC1CC1 (centres unmarked) [Compound 522] | < 1 | –
25 | CC(C)(N)c1cc(-c2ccc(F)cc2)nc(C(O)(CNC(=O)c2cnc[nH]2)C(F)(F)F)c1 (centres unmarked) [Compound 613] | < 10 | CC50 at 5 days [1]: > 100 µM
26 | COc1cc(C(=O)NCC(C)(O)c2ccc(OC)c(-c3ccc(F)c(Cl)c3)n2)ccc1OCCN (centres unmarked) [Compound 382] | < 100 | –
27 | CC(C)(N)c1cc(-c2ccc(F)c(Cl)c2)nc(C(O)(CNC(=O)c2ccc3c(c2)OCO3)C(F)(F)F)c1 (centres unmarked) [Compound 274] | < 1 | EC50 [2, 3]: < 1 µM
28 | COc1cc(C(=O)NCC(O)(Cn2ccnc2)c2cc3c(c(-c4ccc(F)c(Cl)c4)n2)OCC3(C)C)ccc1OCCO (centres unmarked) [Compound 225] | < 1 | –
29 | COc1cc(C(=O)NCC(O)(c2cc(C(C)(C)N)cc(-c3ccc(F)cc3)n2)C(F)(F)F)ccc1OCC(F)(F)F (centres unmarked) [Compound 573] | < 1 | –
30 | COc1cc(C(=O)NCC(O)(c2ccc(OCCN(C)C)c(-c3ccc(F)cc3)n2)C(F)(F)F)ccc1OC1CC1 (centres unmarked) [Compound 480] | < 10 | –
31 | COc1cc(C(=O)NCC(C)(O)c2ccc(OC)c(-c3ccc(F)c(Cl)c3)n2)ccc1N1CCCC1=O (centres unmarked) [Compound 151] | < 10 | –
32 | COc1cc(C(=O)NCC(O)(c2cc(CCCN)cc(-c3ccc(F)c(Cl)c3)n2)C(F)(F)F)ccc1OC1CC1 (centres unmarked) [Compound 591] | < 1 | EC50 [2, 3]: < 1 µM
33 | COc1cc(C(=O)NCC(O)c2ccc(OC)c(-c3ccc(F)c(Cl)c3)n2)ccc1OC(F)F (centres unmarked) [Compound 153] | < 10 | –
34 | CC(C)(N)c1cc(-c2ccc(F)c(Cl)c2)nc(C(O)(CNC(=O)c2csc(Cl)n2)C(F)(F)F)c1 (centres unmarked) [Compound 280] | < 1 | EC50 ([2]; 120 h, read-out: 50% effective concentration (EC50), HEp-2 cells infected with RSV long strain, 5 days, CCK-8 readout): 1 to 50 µM
35 | COc1cc(C(=O)NCC(O)(c2cc(C(C)(N)CF)cc(-c3ccc(F)cc3)n2)C(F)(F)F)ccc1OCCO (centres unmarked) [Compound 676] | < 1 | –
36 | COc1cc(C(=O)NCC(O)(c2cc(C(C)(C)N)cc(-c3ccc(C(F)(F)F)cc3)n2)C(F)(F)F)ccc1OCCO (centres unmarked) [Compound 658] | < 1 | –
37 | CC(C)(N)c1cc(-c2ccc(F)c(Cl)c2)nc(C(O)(CNC(=O)c2cnc(Cl)s2)C(F)(F)F)c1 (centres unmarked) [Compound 276] | < 1 | EC50 [2, 3]: 1 to 50 µM
38 | COc1cc(C(=O)NCC(O)(c2cc(C(C)(C)N)cc(-c3ccc(F)c(Cl)c3)n2)C(F)(F)F)ccc1OCC(=O)NS(C)(=O)=O (centres unmarked) [Compound 618] | < 1 | –
39 | COc1cc(C(=O)NCC(O)(c2cc3c(c(-c4ccc(F)cc4)n2)OCC3(C)N)C(F)(F)F)ccc1OCS(N)(=O)=O (centres unmarked) [Compound 648] | < 1 | –
40 | COc1cc(C(=O)NCC(O)(c2cc3c(c(-c4ccc(C)nc4)n2)OCC3(C)N)C(F)(F)F)ccc1OCCO (centres unmarked) [Compound 671] | – | CC50 at 5 days [1]: > 100 µM
41 | COc1cc(C(=O)NCC(C)(O)c2nc(-c3ccc(F)c(Cl)c3)ccc2F)ccc1OCC(N)=O (centres unmarked) [Compound 377] | < 10 | –
42 | CNC(=O)COc1ccc(C(=O)NCC(O)(c2ccc(OC)c(-c3ccc(F)c(Cl)c3)n2)C(F)(F)F)cc1OC (centres unmarked) [Compound 402] | < 1 | –
43 | COc1cc(C(=O)NCC(O)(c2ccc(OC)c(-c3ccc(F)c(Cl)c3)n2)C(F)(F)F)ccc1OC1CCN(C)C1=O (centres unmarked) [Compound 350] | < 10 | –
44 | COc1cc(C(=O)NCC(O)(c2cc3c(c(-c4ccc(F)c(Cl)c4)n2)OCC3(C)C)C(F)(F)F)ccc1OC1CCNC1=O (centres unmarked) [Compound 203] | < 10 | –
45 | COc1cc(C(=O)NCC(C)(O)c2ccc(OC)c(-c3ccc(F)c(Cl)c3)n2)ccc1-c1cccnc1 (centres unmarked) [Compound 146] | < 10 | –
